Data reported in US10251860B2, “Compounds for bone healing” (University of Pittsburgh—Of the Commonwealth System of …, priority 2015, dated 2019).
“Also recorded” adds a separate entry of the source.

Experiments:
[1] = molecular target: T1, PKD1 (Homo sapiens, UniProt Q15139); experiment: Radiometric PKD1 inhibition assay; assay type: biochemical; conditions: stock solutions in 25% 3/NMP
T1 sequence (Q15139 1-912): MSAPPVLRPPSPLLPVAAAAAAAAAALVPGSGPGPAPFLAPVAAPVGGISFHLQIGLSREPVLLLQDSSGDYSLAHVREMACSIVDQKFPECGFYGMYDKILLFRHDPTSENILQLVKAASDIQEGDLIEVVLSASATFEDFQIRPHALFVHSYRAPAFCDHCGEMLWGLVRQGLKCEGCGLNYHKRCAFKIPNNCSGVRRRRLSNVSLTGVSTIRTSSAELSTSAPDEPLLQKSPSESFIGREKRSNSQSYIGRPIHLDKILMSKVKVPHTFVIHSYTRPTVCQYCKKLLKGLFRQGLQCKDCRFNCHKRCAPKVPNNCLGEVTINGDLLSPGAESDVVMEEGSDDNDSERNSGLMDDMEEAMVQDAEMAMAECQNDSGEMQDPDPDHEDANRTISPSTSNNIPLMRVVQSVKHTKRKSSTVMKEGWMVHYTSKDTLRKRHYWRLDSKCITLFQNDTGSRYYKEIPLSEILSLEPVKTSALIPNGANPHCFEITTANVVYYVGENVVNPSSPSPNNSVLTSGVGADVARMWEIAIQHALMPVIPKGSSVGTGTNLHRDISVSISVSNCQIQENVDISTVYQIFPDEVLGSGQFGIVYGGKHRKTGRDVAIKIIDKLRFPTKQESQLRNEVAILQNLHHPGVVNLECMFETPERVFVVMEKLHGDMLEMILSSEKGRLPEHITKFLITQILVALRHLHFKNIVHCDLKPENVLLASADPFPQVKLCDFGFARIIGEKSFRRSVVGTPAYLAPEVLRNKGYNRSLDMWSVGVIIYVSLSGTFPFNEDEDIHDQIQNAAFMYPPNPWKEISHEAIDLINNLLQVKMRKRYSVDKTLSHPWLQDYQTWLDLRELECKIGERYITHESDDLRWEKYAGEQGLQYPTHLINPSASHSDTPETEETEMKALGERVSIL
From the text: Recently, a series of compounds with nanomolar to micromolar inhibitory activity against the serine/threonine protein kinase D (PKD) isoform PKD1 was disclosed (FIG. 7). Several lead structures, especially those containing a pyrimidine moiety, suffered from poor solubility not only in aqueous media but also in DMSO. To test the feasibility of using sulfoxide 3 as a cosolvent for in vitro assays, its use in the radiometric PKD1 inhibition assay was examined. Inhibitory activity at two concentrations (1 μM and 10 μM) was measured using compound stock solutions in three formulations: DMSO, NMP, and 25% 3/NMP (FIGS. 8 and 9).

[2] = test system: mice; experiment: Dose escalation experiments in mice; assay type: in vivo, mouse
From the text: In particular, certain embodiments of the oxetane-substituted compounds (e.g., MMS350) are radiation protector/mitigators that are water soluble, and easily administered (e.g., orally administered to a subject). […] Furthermore, MnSOD-PL is relatively ineffective when delivered weeks-months after irradiation, at the time that fibrosis is forming, and appears to be only effective when delivered prior to irradiation. In contrast, MMS350 as shown in the data reported herein, has high effectiveness when delivered months after irradiation and at the time of initiation of radiation fibrosis in the lung.

[3] = test system: luc+ bone marrow stromal cells migrating to lungs; experiment: Live imaging of luc+ marrow cell migration to irradiated lungs; assay type: in vivo, mouse; conditions: MMS350 in drinking water
Experimental: C57BL/6NTac mice marrow chimeric luc+ mice were prepared by 9.25 Gy TBI, followed by an injection of 1×10^7 luc+ marrow cells 24 hours later. Subgroups of these chimeric mice were irradiated to 20 Gy to the pulmonary cavity. On day 75 following thoracic irradiation, 50% of the mice were placed on drinking water containing 100 mM MMS350. Mice in the non-chimeric group were injected intraperitoneally on day 100 after irradiation with 1×10^6 luc+ bone marrow stromal cells. Beginning 12 days after cell line injection (112 days after irradiation), the cell line injected mice were imaged at serial timepoints following injection of D-luciferin (Gold Biotechnology, St. Louis, Mo.) using a Xenogen IVIS 200 Imaging system and the bioluminescent signal for each mouse quantitated. As controls for thoracic irradiation, other C57BL/6NTac mice were irradiated to 20 Gy to the right hind limb and injected with luc+ bone marrow stromal cells in the same cell numbers and at the same time points used for the thoracic irradiation experiment. Animals were imaged for luc+ cell migration into irradiated hind limbs using methods identical to that used for pulmonary irradiation groups. The bioluminescence of the mice treated with MMS350 in the drinking water was compared to mice on regular drinking water using a Student T test. […]

For `CC1(C[S+]([O-])CC2(C)COC2)COC1` [Compound 3, 3,3′-Sulfinylbis(methylene)bis(3-methyloxetane)], the “interference with PKD1 inhibition assay” value [1] was “did not interfere with the standard PKD1 inhibition assay”, the toxic dose [2] was “a toxic dose has not yet been reached” and the “pulmonary migration of luc+ bone marrow stromal cells” value ([3]; 20 Gy thoracic irradiation, luc+ stromal cell line injected intraperitoneally) was “significant decrease in migration into the lungs of luc+ cells; also recorded: significant decrease in pulmonary migration of luc+ bone marrow stromal cells”. The “migration of luc+ bone marrow cells into the lungs” value ([3]; luc+ marrow chimeric mice, 18 or 20 Gy thoracic irradiation, listed as MMS350) was “significantly reduces migration of bone marrow cells into the lungs; also recorded: reduction of luc+ areas in the thoracic cavity”.
